Test results reported in patent US20090010910A1, “COMPOSITIONS AND METHODS FOR DERMATOLOGICAL WOUND HEALING” (MEDIWOUND LTD., priority 2004, published 2009).

Test system: burn eschar (deep thermal burn)
Test: In vivo eschar debridement test in swine model (radiant-heat deep thermal burn, 4-hour application, visual assessment score)
Parameters: species or system young domestic pig (Landrace×Large Whites juvenile swine)
From the text: This study assessed the eschar-debriding activity of the debriding composition in vivo using an animal model of young domestic pig (Landrace×Large Whites juvenile swine) 22 Kg±2 Kg, bearing deep thermal burn. […] In order to create test conditions burns were inflicted in fully anesthetized animals, in a dorsal test area, by a radiant heat device creating wounds of about 4.5×4.5 cm^2. The treatment consisted of a 4-hour application of the debriding composition following by cleansing of the wound. Visual evaluation of the wound and extent of debridement is carried out by photographical documentation of the burn was performed before and after the debriding treatment. The results were expressed using debridement visual assessment scoring (VAS) scale of 1 to 5 as follows:
The model was a radiant-heat thermal burn in an anesthetized young domestic pig. In order to create test conditions which are in accordance with the therapeutic use of the test article, deep dermal and full thickness burns were inflicted in all animals by applying a radiant heat device to the back to cover an area of approximately 3% TBSA (4.5×4.5 cm) for each burn. A gross evaluation of the debriding activity of the test article (the amount of eschar removed) was assessed and photographically documented. […]

## O=[N+]([O-])[O-].[Ag+] [AgNO3]
AgNO3 (0.5%), FIG. 1
  debridement by semi solid cake of debriding agent reconstituted with hydrating gel plus antiseptic: performs debridement
FIG. 1, areas 10-12 (Silverol™) versus 14-15 (AgNO3), after cleaning dissolved eschar
  difference in morphology of debrided burns between areas treated with debriding mixture comprising the antiseptic: No significant difference
